Experimental data published in ChEMBL document CHEMBL4390649, “Fine-tuning the neuroprotective and blood-brain barrier permeability profile of multi-target agents designed to prevent progressive mitochondrial dysfunction” (Eur J Med Chem, 2019).
pIC50: −log10 of the molar value. The source made the active and inactive calls. No cut-off for these calls is given here.

Columns and labels:
[1] = Electrochemical behavior of the compound assessed as redox potential corrected toward saturated Ag/AgCl reference electrode by cyclic voltammetry
[2] = Electrochemical behavior of the compound assessed as redox potential corrected toward saturated Ag/AgCl reference electrode by differential pulse voltammetry
[3] = Antioxidant activity assessed as ABTS radical scavenging activity measured after 15 mins by UV-Visible spectrophotometric based assay; type: functional
[4] = Antioxidant activity assessed as DPPH radical scavenging activity measured after 45 mins by UV-Visible spectrophotometric based assay; type: functional
SH-SY5Y [5] = assay: Neuroprotective activity against TBHP-induced oxidative damage in human SH-SY5Y cells assessed as increase in cell viability at 50 uM pretreated for 24 hrs followed by TBHP stimulation measured after 4 hrs by MTT assay relative to control; type: functional
SH-SY5Y [6] = assay: Neuroprotective activity against 6-OHDA-induced toxicity in human SH-SY5Y cells assessed as reduction in cell damage at 10 to 50 uM pretreated for 24 hrs followed by 6-OHDA challenge and measured after 24 hrs by MTT assay relative to control; type: functional
[7] = Cytotoxicity against human SH-SY5Y cells assessed as cell metabolic activity at 10 uM incubated for 24 hrs by MTT assay relative to control; type: ADME, cell-based; conditions: read-out: Activity
[8] = Cytotoxicity against human SH-SY5Y cells assessed as cell metabolic activity at 50 uM incubated for 24 hrs by MTT assay relative to control; type: ADME, cell-based; conditions: read-out: Activity
[9] = Metal chelating activity assessed as compound-Fe2+ complex formation at 100 uM incubated for 10 mins by ferrozine spectrophotometric assay
SH-SY5Y [10] = assay: Neuroprotective activity against TBHP-induced oxidative damage in human SH-SY5Y cells assessed as increase in cell viability at 10 uM pretreated for 24 hrs followed by TBHP stimulation measured after 4 hrs by MTT assay relative to control; type: functional, cell-based
[11] = Cytotoxicity against human HepG2 cells assessed as cell metabolic activity at 50 uM incubated for 48 hrs by resazurin assay relative to control; type: ADME, cell-based; conditions: read-out: Activity
[12] = Cytotoxicity against human HepG2 cells assessed as cell metabolic activity at 10 uM incubated for 48 hrs by resazurin assay relative to control; type: ADME, cell-based; conditions: read-out: Activity
SH-SY5Y [13] = assay: Neuroprotective activity against H2O2-induced oxidative damage in human SH-SY5Y cells assessed as reduction in cell damage at 10 uM pretreated for 24 hrs followed by H2O2 challenge measured after 30 mins by MTT assay relative to control; type: functional; design: scale not given: the % may be the effect or the level left
SH-SY5Y [14] = assay: Neuroprotective activity against H2O2-induced oxidative damage in human SH-SY5Y cells assessed as reduction in cell damage at 50 uM pretreated for 24 hrs followed by H2O2 challenge measured after 30 mins by MTT assay relative to control; type: functional; design: scale not given: the % may be the effect or the level left
SH-SY5Y [15] = assay: Induction of ROS generation in human SH-SY5Y cells at 50 uM incubated for 24 hrs by DCFH-DA probe based fluorescence assay relative to control; type: functional

## O=C(O)c1ccc(O)c(O)c1 [PROTOCATECHUIC ACID]
[1]
  Activity: 234 mV
[2]
  Activity: 234 mV
[3]
  pIC50: 4.58
[4]
  pIC50: 4.38

## O=C(O)Cc1ccc(O)c(O)c1 [3,4-DIHYDROXYPHENYLACETIC ACID]
[1]
  Activity: 122 mV
[2]
  Activity: 270 mV
[3]
  pIC50: 4.74
[4]
  pIC50: 4.58

## CS(=O)(=O)[O-].O=C(/C=C/c1ccc(O)c(O)c1)NCCCCCC[P+](c1ccccc1)(c1ccccc1)c1ccccc1
SH-SY5Y [5]
  Activity: inactive
[1]
  Activity: 164 mV
SH-SY5Y [6]
  Activity: inactive
[2]
  Activity: 164 mV
[3]
  pIC50: 4.52
[4]
  pIC50: 4.53
[7]
  viability at 24 h, 10 µM: 103%
[8]
  viability at 24 h, 50 µM: 97.6%
[9]
  Activity: > 80%
SH-SY5Y [10]
  Activity: inactive
[11]
  viability at 48 h, 50 µM: 112%
[12]
  viability at 48 h, 10 µM: 111%
SH-SY5Y [13]
  Activity: 70.8 - 83.3%
SH-SY5Y [14]
  Activity: 70.8 - 83.3%

## CS(=O)(=O)[O-].O=C(/C=C/c1cc(O)c(O)c(O)c1)NCCCCCCCCCC[P+](c1ccccc1)(c1ccccc1)c1ccccc1
SH-SY5Y [5]
  Activity: inactive
[1]
  Activity: 57 mV
SH-SY5Y [6]
  Activity: inactive
[2]
  Activity: 741 mV
[3]
  pIC50: 5.12
[4]
  pIC50: 4.86
[7]
  viability at 24 h, 10 µM: 99%
[8]
  viability at 24 h, 50 µM: 101%
SH-SY5Y [15]
  Activity: Active
[9]
  Activity: > 80%
SH-SY5Y [10]
  Activity: inactive
[11]
  viability at 48 h, 50 µM: 108%
[12]
  viability at 48 h, 10 µM: 105%
SH-SY5Y [13]
  Activity: 70.8 - 83.3%
SH-SY5Y [14]
  Activity: 70.8 - 83.3%

## O=C(NCCCCCC[P+](c1ccccc1)(c1ccccc1)c1ccccc1)c1ccc(O)c(O)c1
SH-SY5Y [5]
  Activity: inactive
[1]
  Activity: 219 mV
SH-SY5Y [6]
  Activity: inactive
[2]
  Activity: 219 mV
[3]
  pIC50: 4.68
[4]
  pIC50: 4.51
[7]
  viability at 24 h, 10 µM: 102%
[8]
  viability at 24 h, 50 µM: 96.9%
[9]
  Activity: > 80%
SH-SY5Y [10]
  Activity: inactive
[11]
  viability at 48 h, 50 µM: 90.3%
[12]
  viability at 48 h, 10 µM: 97.4%
SH-SY5Y [13]
  Activity: inactive

## O=C(O)CCc1cc(O)c(O)c(O)c1
[1]
  Activity: 120 mV
[2]
  Activity: 543 mV
[3]
  pIC50: 5.04
[4]
  pIC50: 4.95

## Cc1c(C)c2c(c(C)c1O)CCC(C)(C(=O)O)O2 (configuration not stated) [TROLOX]
[1]
  Activity: 113 mV
[2]
  Activity: 113 mV
[3]
  pIC50: 4.61
[4]
  pIC50: 4.51
[7]
  viability at 24 h, 10 µM: 3.62%
[8]
  viability at 24 h, 50 µM: 3.62%
[11]
  viability at 48 h, 50 µM: 5.99%
[12]
  viability at 48 h, 10 µM: 5.99%

## O=C(O)/C=C/c1cc(O)c(O)c(O)c1
[1]
  Activity: 56 mV
[2]
  Activity: 589 mV
[3]
  pIC50: 5.34
[4]
  pIC50: 4.99

## O=C(O)c1cc(O)c(O)c(O)c1 [GALLIC ACID]
[1]
  Activity: 120 mV
[2]
  Activity: 559 mV
[3]
  pIC50: 5.11
[4]
  pIC50: 5.00

## O=C(O)Cc1cc(O)c(O)c(O)c1
[1]
  Activity: 135 mV
[2]
  Activity: 550 mV
[3]
  pIC50: 5.33
[4]
  pIC50: 5.17

## O=C(NCCCCCCCCCC[P+](c1ccccc1)(c1ccccc1)c1ccccc1)c1cc(O)c(O)c(O)c1
SH-SY5Y [5]
  Activity: inactive
[1]
  Activity: 114 mV
SH-SY5Y [6]
  Activity: inactive
[2]
  Activity: 725 mV
[3]
  pIC50: 5.13
[4]
  pIC50: 4.99
[7]
  viability at 24 h, 10 µM: 107%
[8]
  viability at 24 h, 50 µM: 101%
SH-SY5Y [15]
  Activity: Active
[9]
  Activity: > 80%
SH-SY5Y [10]
  Activity: inactive
[11]
  viability at 48 h, 50 µM: 108%
[12]
  viability at 48 h, 10 µM: 108%
SH-SY5Y [13]
  Activity: 70.8 - 83.3%
SH-SY5Y [14]
  Activity: 70.8 - 83.3%

## O=C(O)CCc1ccc(O)c(O)c1 [DIHYDROCAFFEIC ACID]
[1]
  Activity: 112 mV
[2]
  Activity: 216 mV
[3]
  pIC50: 4.62
[4]
  pIC50: 4.61

## O=C(O)/C=C/c1ccc(O)c(O)c1 [CAFFEIC ACID]
[1]
  Activity: 168 mV
[2]
  Activity: 168 mV
[3]
  pIC50: 4.69
[4]
  pIC50: 4.55
